# Where “and” joins values, the source holds several entries; their conditions need not be identical. Equal values may be shown once.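 All cell lines were grown in 96-well plates and treated with compound for 48 hours. The concentration for 50% growth inhibition is given as GI50. At the TGI there is no net growth.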
# Key:
# Assay in all cases: NCI tumour cell line growth inhibition, 48 h
# [1] = test system: SNB-19 CNS
# [2] = test system: HT29 colon
# [3] = test system: HS 578T breast
# [4] = test system: HOP-62 NSCLC
# [5] = test system: NCI/ADR-RES ovarian
# [6] = test system: OVCAR-4 ovarian
# [7] = test system: COLO 205 colon
# [8] = test system: A549 NSCLC
Compound,GI50 [1],TGI [1],GI50 [2],TGI [2],GI50 [3],TGI [3],GI50 [4],TGI [4],GI50 [5],TGI [5],GI50 [6],TGI [6],GI50 [7],TGI [7],GI50 [8],TGI [8]
Nc1ccccc1-c1ccc([N+](=O)[O-])cc1,24.2 µM,> 100 µM,54.4 µM,> 100 µM,50.8 µM,> 100 µM,> 100 µM,> 100 µM,26.2 µM,> 100 µM,40.8 µM,> 100 µM,10.7 µM,27.2 µM,4.65 µM,> 100 µM
Cc1ccc2c(c1)c1nc3cc(C)c(C)cc3nc1n2CCN(C)C,2.5 µM,9.88 µM,1.23 µM,6.54 µM,2.74 µM,8.04 µM,1.78 µM,7.26 µM,1.15 µM,5.42 µM,3.43 µM,19.6 µM,1.24 µM,4.6 µM,1.79 µM,4.72 µM
O=S(=O)(Cc1ccc(Cl)cc1Cl)c1ccc(Cl)cc1,1.38 µM,> 100 µM,0.338 µM,3.84 µM,0.729 µM,> 100 µM,3.36 µM,> 100 µM,0.478 µM,3.59 µM,5.73 µM,> 100 µM,0.548 µM,5.52 µM,0.693 µM,> 100 µM
Nc1cc(C(=O)O)[nH]c(=O)n1,,> 100 µM,,> 100 µM,,> 100 µM,,> 100 µM,,> 100 µM,,> 100 µM,,> 100 µM,,> 100 µM
Cc1ccc(NC(=O)Cc2ccc(/C=C/C(=O)c3ncc[nH]3)cc2)cc1,6.65 µM,> 25 µM,0.955 µM,5.09 µM,13.6 µM,> 25 µM,5.24 µM,21.6 µM,6.73 µM,> 25 µM,10.4 µM,> 25 µM,7.27 µM,> 25 µM,9.14 µM,> 25 µM
N=C(N)c1ccc(OCCOCCOc2ccc(C(=N)N)cc2)cc1,80.6 µM,> 100 µM,78.3 µM,> 100 µM,67.3 µM,> 100 µM,> 100 µM,> 100 µM,> 100 µM,> 100 µM,> 100 µM,> 100 µM,50.1 µM,> 100 µM,40.1 µM,> 100 µM
CCC1C(=O)OCc2c1cc1n(c2=O)Cc2cc3ccccc3nc2-1 (stereo unspecified),,> 100 µM,,> 100 µM,,> 100 µM,,25.5 µM,,> 64.7 µM,,> 100 µM,,> 100 µM,,> 100 µM
Clc1ccc(/C=C/c2cc(N3CCOCC3)c3cc(Cl)c(Cl)cc3n2)cc1,> 100 µM,> 100 µM,> 100 µM,> 100 µM,> 100 µM,> 100 µM,> 100 µM,> 100 µM,> 100 µM,> 100 µM,> 100 µM,> 100 µM,> 100 µM,> 100 µM,> 100 µM,> 100 µM
O=C(Nc1ccccc1)c1nn(-c2cc(S(=O)(=O)O)c([N+](=O)[O-])cc2Cl)[n+](-c2cc(S(=O)(=O)[O-])c([N+](=O)[O-])cc2Cl)n1,,> 100 µM,,> 100 µM,,> 100 µM,,> 100 µM,,> 100 µM,,> 100 µM,,> 100 µM,,> 100 µM
O=C1CC(c2cccc(O)c2)C2(C(=O)NC(=S)NC2=O)C(c2cccc(O)c2)C1 (stereo unspecified),> 100 µM,> 100 µM,> 100 µM,> 100 µM,> 100 µM,> 100 µM,> 100 µM,> 100 µM,> 100 µM,> 100 µM,> 100 µM,> 100 µM,> 100 µM,> 100 µM,> 100 µM,> 100 µM
N#Cc1ncc(-c2ccc(C(F)(F)F)cc2)c(NCc2cc(C(F)(F)F)cc(C(F)(F)F)c2)n1,4.84 µM,63.3 µM,3.27 µM,> 100 µM,3.08 µM,59.8 µM,4.73 µM,39.2 µM,3.23 µM,65.8 µM,3.33 µM,> 100 µM,2.24 µM,4.57 µM,3.11 µM,21.1 µM
CN(Cc1ccc(Cl)cc1)c1ccc(CO)c(Cl)c1,16.8 µM,51.6 µM,6.7 µM,22.6 µM,12.5 µM,39.8 µM,5.75 µM,18.3 µM,8 µM,25.4 µM,2.27 µM,14 µM,5.95 µM,18.1 µM,3.9 µM,17.8 µM
CCCc1cc(O)c2c3c(c(=O)oc2c1)CN(C)CC3,> 100 µM,> 100 µM,39.5 µM,> 100 µM,41.3 µM,> 100 µM,67.1 µM,> 100 µM,> 100 µM,> 100 µM,82.8 µM,> 100 µM,40.6 µM,> 100 µM,> 100 µM,> 100 µM
O=[N+]([O-])c1ccccc1N=Nc1c(O)[nH]c2ccc(Br)cc12,,45.2 µM,,29.3 µM,,46.2 µM,,28.3 µM,,40.6 µM,,> 59 µM,,33.9 µM,,21 µM
CC(=O)CCc1ccc(OC2OC(COC(=O)c3cc(O)c(O)c(O)c3)C(O)C(O)C2OC(=O)/C=C/c2ccccc2)cc1 (stereo unspecified),18.4 µM,49.7 µM,29.6 µM,82.2 µM,33.8 µM,> 100 µM,17.2 µM,33.8 µM,> 100 µM,> 100 µM,23.8 µM,89.7 µM,28.1 µM,89.4 µM,25.8 µM,59.7 µM
COc1cccc(C2C3=C(COC3=O)N(CCO)c3cc(OC)ccc32)c1 (stereo unspecified),0.221 µM,> 100 µM,0.0743 µM,2.9 µM,0.188 µM,> 80.8 µM,0.124 µM,> 100 µM,0.0908 µM,,0.153 µM,> 100 µM,0.107 µM,0.755 µM,0.12 µM,> 100 µM
S=C(N/N=C(/c1ccccc1)c1ccccn1)N1CCCCC1,1.1 µM,2.9 µM and 5.49 µM,0.0345 µM,2.17 µM and 2.44 µM,1.3 µM,6.74 µM and 5.88 µM,< 0.001 µM,2.33 µM and 2.78 µM,< 0.001 µM,1.87 µM and 0.986 µM,0.119 µM,3.12 µM and 1.43 µM,< 0.001 µM,,0.00361 µM,1.71 µM and 3.88 µM

Compound,GI50 [1],TGI [1],GI50 [2],TGI [2],GI50 [3],TGI [3],GI50 [4],TGI [4],GI50 [5],TGI [5],GI50 [6],TGI [6],GI50 [7],TGI [7],GI50 [8],TGI [8]
Nc1nc(N)c(Cn2ccnc2)c(=O)[nH]1,,> 100 µM,,> 100 µM,,> 100 µM,,> 100 µM,,> 100 µM,,> 100 µM,,> 100 µM,,> 100 µM
Cc1cc(Cl)cc2c(N=Nc3ccccc3[N+](=O)[O-])c(O)[nH]c12,,> 100 µM,,,,> 100 µM,,> 100 µM,,,,> 100 µM,,> 100 µM,,> 100 µM
Cn1cc(C2=C(c3cccc(N)c3)C(=O)NC2=O)c2ccccc21,> 25 µM,> 25 µM,13.1 µM,> 25 µM,1.34 µM,> 25 µM,9.5 µM,> 25 µM,> 19.7 µM,> 25 µM,> 25 µM,> 25 µM,10.8 µM,> 25 µM,14.1 µM,> 25 µM
COC(=O)C1=C(C)NC(C)=C(C(=O)OC)C1/C=C(\Cl)c1ccc(Cl)c(Cl)c1,18.8 µM,41.6 µM,4.51 µM,18.5 µM,12.2 µM,33.4 µM,16.3 µM,29.8 µM,16.4 µM,30.8 µM,10.8 µM,26.6 µM,17.9 µM,43.2 µM,11.9 µM,24.4 µM
CCOc1ccc(-c2cnnn2-c2nonc2-n2cccc2)cc1,0.729 µM,> 100 µM,0.22 µM,4.54 µM,0.229 µM,0.873 µM,0.421 µM,> 100 µM,0.139 µM,> 38.1 µM,0.655 µM,> 100 µM,0.247 µM,0.808 µM,0.388 µM,> 100 µM
O=C(Nc1ccc(F)cc1)Nc1ccccc1CNc1nc(Nc2ccc(OCCN3CCCC3)cc2)ncc1Cl,3 µM,11.1 µM,1.49 µM,50 µM,0.99 µM,2.58 µM,1.39 µM,4.21 µM,2.59 µM,10.4 µM,1.11 µM,2.93 µM,,,2.72 µM,20.9 µM
Cn1ccnc1C(=O)/C=C/c1ccc(C(=O)Nc2ccc(S(F)(F)(F)(F)F)cc2)cc1,2.34 µM,> 14.3 µM,1.88 µM,> 14.3 µM,3.4 µM,> 14.3 µM,4.05 µM,> 14.3 µM,1.52 µM,> 14.3 µM,0.704 µM,> 14.3 µM,2 µM,12.3 µM,3.81 µM,> 14.3 µM
CC(C)Nc1ccc(Nc2ccccc2)cc1,25.5 µM,> 100 µM,17 µM,48.4 µM,38.3 µM,> 100 µM,23.6 µM,66.9 µM,9.8 µM,65.3 µM,,,14.3 µM,31.3 µM,26.2 µM,> 100 µM
COc1cc(-n2cc(-c3ccc(F)cc3)nc2SCc2ccccc2)cc(OC)c1OC,> 100 µM,> 100 µM,13.4 µM,> 100 µM,> 100 µM,> 100 µM,> 100 µM,> 100 µM,> 100 µM,> 100 µM,> 100 µM,> 100 µM,> 100 µM,> 100 µM,> 100 µM,> 100 µM
O=C1c2cccnc2C(=O)C2C3C=CC(C3)C12 (stereo unspecified),,34.3 µM,,60.9 µM,,85.1 µM,,20.4 µM,,> 100 µM,,21.7 µM,,26.5 µM,,50.8 µM
COc1cc2cc(C(=O)CCC(=O)O)sc2cc1OC,> 100 µM,> 100 µM,54.6 µM,> 100 µM,> 100 µM,> 100 µM,> 100 µM,> 100 µM,> 100 µM,> 100 µM,> 100 µM,> 100 µM,> 100 µM,> 100 µM,> 100 µM,> 100 µM
O=c1cc(-c2ccccc2)oc2cc(O)c(O)c(O)c12,30 µM,> 100 µM,42.7 µM,> 100 µM,,,9.49 µM,31.2 µM,16 µM,44.6 µM,47.1 µM,> 100 µM,,,36.2 µM,> 100 µM
O=C1C2C(C(=O)[N]1[Hg][c]1cccs1)C1(Cl)C(Cl)=C(Cl)C2(Cl)C1(Cl)Cl (stereo unspecified),1.72 µM,3.4 µM,0.649 µM,3.57 µM,2.41 µM,11.5 µM,2.52 µM,6.84 µM,2.07 µM,4.8 µM,1.24 µM,2.51 µM,1.22 µM,2.65 µM,5.94 µM,16.7 µM
CC(C)(O)C#Cc1ccc(/C=C/C(=O)c2ccccc2)s1,16.9 µM,31.7 µM,13.5 µM,29.9 µM,25.5 µM,79.7 µM,,,18.3 µM,39 µM,17.1 µM,39 µM,16.9 µM,32.7 µM,16.5 µM,30.5 µM
O=c1ccc(N=Nc2ccc([N+](=O)[O-])cc2)ccc1O,4.14 µM,> 100 µM,5.71 µM,> 100 µM,4.27 µM,> 100 µM,18.1 µM,> 100 µM,,,5.17 µM,> 100 µM,21.7 µM,> 100 µM,6.8 µM,> 100 µM
CCN1/C(=C/C=C/c2n(-c3ccccc3)c3ccc(-c4nc5ccccc5s4)cc3[n+]2CC)N(c2ccccc2)c2ccc(-c3nc4ccccc4s3)cc21,0.369 µM,> 50 µM,0.333 µM,> 50 µM,0.284 µM,> 50 µM,,,3.55 µM,> 50 µM,0.765 µM,> 50 µM,0.187 µM,0.919 µM,0.284 µM,> 26.1 µM
CCOC(=O)/C(=N\OC)C(O)C(F)(F)F (stereo unspecified),,> 100 µM,,> 100 µM,,> 100 µM,,> 100 µM,,> 100 µM,,,,> 100 µM,,> 100 µM
